{
  "source": "patent US20020155083A1",
  "about": "“Dermal regeneration methods and compositions related thereto in conjunction with laser phototherapy, microdermabrasion and epidermabrasion” (priority 2001, published 2002)",
  "origin": "cited, not measured here",
  "key": {"[1]": {"system": "BCO, Candida, or Cryptococcus", "conditions": "immunosuppressed mice infected with BCO"}, "interferon (IFN)": {"system": "interferon (IFN)", "conditions": "mouse, in vivo"}, "Candida albicans": {"system": "Candida albicans", "conditions": "mice, injection"}, "[2]": {"system": "C. albicans, Listeria monocytogenes, Pseudomonas aeruginosa, and Serratia marescens", "conditions": "5-fluorouracil (5FU)- or morphine-immunosuppressed mice, injection"}, "influenza virus": {"system": "influenza virus", "conditions": "in combination with amantadine and interferon; mice infected with the influenza virus"}},
  "note": "Ends that are not written are not given here.",
  "data": [
    {"substance": "thymosin α1 (SDAAVDTSSEITTKDLKEKKEVVEEAEN; ends and bridges not checked; UniProt P06454 2-29, looked up) [Tα1]", "values": [
      {"measurement": "survival rate", "setting": "[1]", "value": "increased survival rate"},
      {"measurement": "amount of interferon (IFN) produced", "setting": "interferon (IFN)", "value": "significant rise"},
      {"measurement": "resistance to infection with Candida albicans", "setting": "Candida albicans", "value": "increased resistance"},
      {"measurement": "protection against opportunistic infections", "setting": "[2]", "value": "protect"},
      {"measurement": "long term survival", "setting": "influenza virus", "value": "significantly increase"},
      {"measurement": "viral titers in the lungs", "setting": "influenza virus", "value": "reduce viral titers"}
    ]}
  ]
}
